According to publication PMC10815238, “New N-Terminal Fatty-Acid-Modified Melittin Analogs with Potent Biological Activity” (International Journal of Molecular Sciences, 2024):
Converted amounts (≈) assume the structure as drawn.

What was measured:
[1] = system: Bacillus cereus (B. cereus) CVCC 4101; format: cell-based; conditions: NB medium, 37 °C, 18 h, three independent measurements
Method: (§1) MIC was determined using the broth microdilution method with minor modification. In brief, bacteria (S. aureus ATCC 43300, E. faecalis ATCC 29212, E. coli ATCC 25922, P. aeruginosa ATCC 27853, L. monocytogenes CVCC 3764, B. cereus CVCC 4101, S. Castellani CGMCC 1.1869, and the multidrug-resistant E. coli strain) were cultured in nutrient broth (NB) medium (Macklin, Shanghai, China) to the logarithmic phase and diluted to 1 × 10^6 colony forming units (CFUs)/mL. The MDLs were dissolved to a final concentration of 256~0.25 μg/mL in NB medium using two-fold dilutions. A total of 50 μL of different concentrations of the MDL solutions and an equal volume of bacterial suspension were added to a 96-well plate, which was then incubated at 37 °C for 18 h. The minimum concentrations of the MDLs with no visible growth of bacteria were defined as the corresponding MICs. Media containing bacteria without the MDLs were set as the negative control. Each measurement was performed independently three times.

[2] = system: Enterococcus faecalis (E. faecalis) ATCC 29212; format: cell-based; conditions: NB medium, 37 °C, 18 h, three independent measurements
Method: as §1

[3] = system: Shigella castellani (S. castellani) CGMCC 1.1869; format: cell-based; conditions: NB medium, 37 °C, 18 h, three independent measurements
Method: as §1

[4] = system: Multidrug-Resistant Escherichia coli (E. coli) Strain; format: cell-based; conditions: NB medium, 37 °C, 18 h, three independent measurements
Excerpt: The standard strains of S. aureus ATCC 43300, E. faecalis ATCC 29212, E. coli ATCC 25922, and P. aeruginosa ATCC 27853 were obtained from the American Type Culture Collection (ATCC). L. monocytogenes CVCC 3764 and B. cereus CVCC 4101 were obtained from the National Center for Veterinary Culture Collection (CVCC). S. castellani CGMCC 1.1869 was obtained from the China General Microbiological Culture Collection Center. The multidrug-resistant strain Escherichia coli was obtained from the research base of the Chongqing Academy of Animal Sciences (Chongqing, China). All strains were cultured in nutrient broth overnight at 37 °C to a logarithmic growth phase before each experiment.
MIC was determined using the broth microdilution method with minor modification. In brief, bacteria (S. aureus ATCC 43300, E. faecalis ATCC 29212, E. coli ATCC 25922, P. aeruginosa ATCC 27853, L. monocytogenes CVCC 3764, B. cereus CVCC 4101, S. Castellani CGMCC 1.1869, and the multidrug-resistant E. coli strain) were cultured in nutrient broth (NB) medium (Macklin, Shanghai, China) to the logarithmic phase and diluted to 1 × 10^6 colony forming units (CFUs)/mL. The MDLs were dissolved to a final concentration of 256~0.25 μg/mL in NB medium using two-fold dilutions. […]

[5] = system: swine erythrocytes; test: Hemolytic activity assay; format: cell-based; conditions: swine erythrocytes in PBS, 1 h, 37 °C; concentration more than 4 μg/mL
Method: The hemolytic activity of the MDLs was evaluated as described previously with minor modification. Swine erythrocytes were collected by centrifugation at 1000 rpm for 5 min, washed three times, and suspended to a final concentration of 8% vol/vol with PBS (Macklin, Shanghai, China). Equal volumes of erythrocyte suspension and the MDLs solutions at various concentrations were mixed in a 96-well plate and incubated for 1 h at 37 °C. After centrifugation at 1000 rpm for 10 min, the supernatant was transferred to a 96-well plate. The supernatant optical density (OD) was measured at 490 nm using a microplate reader (BioTek, Winooski, VT, USA). Untreated erythrocytes and erythrocytes treated with 1% Triton X-100 (Merck, Darmstadt, Germany) were employed as the negative and positive controls, respectively. The hemolysis percentage was calculated using the following equation: Hemolysis rate%=OD490(lipopeptide)−OD490(PBS)/OD490(1% Triton X-100)−OD490(PBS)×100%

[6] = system: human red blood cells; conditions: cited from earlier work
Method: (§2) Despite its multiple potential biological activities, the applications for melittin are limited due to its severe hemolytic activity and low proteolytic stability. Melittin results in 50% hemolysis of human red blood cells at a concentration of 2 μM and 100% at 7 μM [19].

[7] = system: trypsin; conditions: cited from earlier work
Method: as §2

[8] = system: pepsin; conditions: after 2 h of incubation; cited from earlier work
Excerpt: Poor protease stability is one of the main factors that has limited melittin’s clinical application.

[9] = fetal bovine serum, human serum, and human plasma; cited from earlier work
Excerpt: However, binding with serum albumin would weaken the detection of the free MDLs and reduce their antibacterial activity.

CC[C@H](C)[C@H](NC(=O)CN)C(=O)NCC(=O)N[C@@H](C)C(=O)N[C@H](C(=O)N[C@@H](CC(C)C)C(=O)N[C@@H](CCCCN)C(=O)N[C@H](C(=O)N[C@@H](CC(C)C)C(=O)N[C@H](C(=O)N[C@H](C(=O)NCC(=O)N[C@@H](CC(C)C)C(=O)N1CCC[C@H]1C(=O)N[C@@H](C)C(=O)N[C@@H](CC(C)C)C(=O)N[C@H](C(=O)N[C@@H](CO)C(=O)N[C@@H](Cc1c[nH]c2ccccc12)C(=O)N[C@H](C(=O)N[C@@H](CCCCN)C(=O)N[C@@H](CCCNC(=N)N)C(=O)N[C@@H](CCCCN)C(=O)N[C@@H](CCCNC(=N)N)C(=O)N[C@@H](CCC(N)=O)C(=O)N[C@@H](CCC(N)=O)C(N)=O)[C@@H](C)CC)[C@@H](C)CC)[C@@H](C)O)[C@@H](C)O)C(C)C)C(C)C [Mel, Melittin]
MIC [1]: 16 µg/mL (≈ 5.62 µM) | MIC [2]: 16 µg/mL (≈ 5.62 µM) | MIC [3]: 32 µg/mL (≈ 11.2 µM) | MIC [4]: 64 µg/mL (≈ 22.5 µM) | hemolysis rate [5]: rapidly increased | concentration resulting in 50% hemolysis [6]: 2 µM | concentration resulting in 100% hemolysis [6]: 7 µM | melittin left after incubation with trypsin ([7]; after 60 min of incubation): almost no melittin is left | digestion by trypsin [7]: digested rapidly | degradation by pepsin [8]: entirely degraded | stability in serum and plasma [9]: stable
